Tests used:
[1] = tested on: HT-29; experiment: Superoxide anion level, DHE probe; assay type: cell-based, human; details: compound at IC50, 24 h, vs control
Description: Superoxide anion (O2^•−) levels were quantified using a microplate spectrofluorometric assay with dihydroethidium (DHE) (Life Technologies, Carlsbad, CA, USA). DHE is a well-established fluorogenic probe for intracellular superoxide detection. […] The reaction between superoxide and DHE produces a highly specific red fluorescent product, 2-hydroxyethidium (2-OH-E ^+).
Cells were seeded in black 96-well fluorometric microplates at a density of 10 × 10^3 cells/mL. […] Following compound incubation, the medium was removed, and the cell monolayers were washed twice with HBSS (140 mM NaCl, 5 mM KCl, 0.8 mM MgCl2, 1.8 mM CaCl2, 1 mM Na2HPO4, 10 mM HEPES, and 1% glucose). A volume of 50 µL of DHE solution in HBSS (final concentration 5 μM) was added to each well, and the cells were incubated for 30 min in the dark at 37 °C. After incubation with the DHE, fluorescence measurements were conducted using a Perkin-Elmer LS-5B spectrofluorometer (Waltham, MA, USA) at the following excitation and fluorescence emission wavelengths: λex = 498 nm/λem = 582 nm. The fluorescence intensity of control cells was arbitrarily assigned a value of 100%. The results were expressed as percentages of control, calculated by comparing the fluorescence intensity ratio of the test samples to controls (100%). The fluorescence of samples was denoted as Δf in relation to the control.

[2] = tested on: HT-29; experiment: Intracellular GSH level, monochlorobimane (MCB) probe; assay type: cell-based, human; details: compound at IC50, 24 h, vs control
Description: The spectrofluorimetric method with monochlorobimane (MCB; Sigma-Aldrich; St. Louis, MO, USA) was used to determine GSH. Monochlorobimane reacts with glutathione in a reaction catalyzed by cellular glutathione S-transferase. The reaction produces a fluorescent bimane-glutathione conjugate (GSH-MCB). A major advantage of MCB is its ability to penetrate the cell membrane, which is why it is used as a probe to determine the amount of GSH in living cells.
Cells were seeded in black 96-well fluorometric microplates at a density of 10 × 10^3 cells/mL. […] Following compound incubation, the medium was removed, and the cell monolayers were washed twice with HBSS (140 mM NaCl, 5 mM KCl, 0.8 mM MgCl2, 1.8 mM CaCl2, 1 mM Na2HPO4, 10 mM HEPES, and 1% glucose). A solution of MCB at a final concentration of 40 μM was added to each well and incubated in a CO2 cell culture incubator at 37 °C for 20 min. A 40 mM MCB stock solution was prepared by dissolving 9 mg of the reagent in 1 mL of absolute ethanol. Fluorescence was measured using a Perkin-Elmer LS-5B spectrofluorometer (Waltham, MA, USA) at the following excitation and fluorescence emission wavelengths: λex = 380 nm/λem = 470 nm. After incubation with MCB, the cells were lysed with 50 μL of lysis buffer (10 mM TRIS-HCl; pH 8 containing 0.1% Triton X-100). In order to normalize the number of cells in individual samples, the amount of DNA was determined by adding 50 μL of ethidium bromide (EB, final concentration 0.2 mM) to each well after measuring the MCB fluorescence and measuring the EB fluorescence at an excitation wavelength of λex = 530 nm and an emission wavelength of λem = 590 nm. The results obtained using the standard curve were converted to nM of GSH.

[3] = tested on: HCT 116; experiment: MTT cell viability assay; assay type: cell-based; details: Homo sapiens, 24 h incubation with compound, mean ± SD of three experiments, read-out: Cytotoxic effect, IC50
Description: The cytotoxic activity of the 3-benzylideneflavanones, 3-benzylidenechromanones derivatives (compounds 1, 2, 3, 4, 5) and 5′-(3-methoxyphenyl)-2-phenyl-4′,5′-dihydro-4H-spiro[chromano-3,3′-pirazol]-4-one (compound 3a) was evaluated using the MTT assay (4,5-dimethylthiazol-2-yl)-2,5-diphenyltetrazoliumbromide), a colorimetric method that quantifies cell viability.
Cell viability was determined using the metabolic microplate spectrophotometric assay with Methylthiazolyl diphenyltetrazolium bromide (MTT) (Sigma-Aldrich; St. Louis, MO, USA). The MTT method belongs to metabolic tests for determining cell viability and consists of measuring the absorbance of a violet solution of formazan, a product of the reduction of a water-soluble yellow MTT by oxidoreductive enzymes (mainly mitochondrial succinate dehydrogenase) of living cells. The amount of the reaction product (water-insoluble formazan crystals) is proportional to the number of living and metabolically active cells in the sample. In the case of damaged or dead cells, formazan is formed in smaller amounts, or it is not formed.
The appropriate number of cells for a given cell line (6–8 × 10^3 cells/mL) were seeded onto colorless, sterile 96-well microplates (Nunc, Roskilde, Denmark) in the number appropriate for a given cell line. After 24 h of culture, various concentrations of the studied compounds (10^−7–10^−5 M) freshly prepared in DMSO (final concentration DMS < 0.1%) and diluted with complete culture medium were added and incubated in a CO2 incubator for 24 h. After this time, the medium was removed; the cell monolayer was washed twice with sterile PBS solution; and fresh culture medium was added to the microplate wells. After 48 h of cell culture, the MTT test was performed. A volume of 50 μL of tetrazolium salt solution (final concentration 0.05 mg/mL) was added to each microplate well. The microplate was placed for 3–4 h (depending on the cell line) in a CO2 incubator. After incubation, 100 μL of DMSO was added to the wells of the microplate to dissolve the purple formazan crystals formed in the living cell environment. The absorbance of the formazan solution, after gentle mixing, was read at a wavelength of λ = 580 nm and a reference wavelength of λ = 720 nm (Biotek Power Wave HT, Biotek Instruments, Winooski, VT, USA). The percentage of living cells was calculated by comparing the absorbance value of the tested samples with the absorbance value of the control (cells not treated with compounds). The absorbance of the control was taken as 100%.

[4] = tested on: LoVo; experiment: MTT test after pre-incubation with antioxidants NAC or Trolox; assay type: cell-based, human; details: vs cells without antioxidant pre-incubation
Description: Moreover, the elevation of ROS levels was accompanied by a decrease in intracellular GSH. To investigate the role of ROS in the cytotoxic activity of flavonoid derivatives against cancer cells, LoVo cancer cells were pre-treated with antioxidants, NAC or a water-soluble derivative of vitamin E (Trolox), for 1 h before exposure to the studied compounds. Subsequently, the MTT assay was performed.
To elucidate the involvement of ROS in the cytotoxic effects of the investigated compounds, cells were pre-treated with the vitamin E (Trolox, Sigma-Aldrich, St. Louis, MO, USA) or N-Acetylcysteine (NAC) antioxidants for 1 h. Cells were seeded into sterile, colorless 96-well microplates at a density of 6–8 × 10^3 cells/mL, contingent upon the cell line. Following a 24 h culture period, Trolox or NAC was added at a final concentration of 50 μM and 3 mM, respectively. After 1 h of incubation, the antioxidants were removed by washing, and test compounds were administered at appropriate concentrations (10–200 μM) in fresh cell culture medium, followed by a 24 h incubation. The MTT assay was then conducted under identical experimental conditions, as detailed in Section 2.2.

| SMILES | Increase in O2−• (superoxide anion) levels [1] | Decrease in GSH levels [2] | IC50 [3] | Change of the IC50 value after pre-incubation with Trolox [4] |
| --- | --- | --- | --- | --- |
| O=C1/C(=C/c2ccccc2)COc2ccccc21 [Compound 1] | approximately 40% | 25–30% | 10.1 ± 1.3 µM |  |
| COc1cccc(/C=C2/C(=O)c3ccccc3OC2c2ccccc2)c1 (centres unmarked) [Compound 3] |  |  | 18.6 ± 1.4 µM | Statistically significant increases in the IC50 value |
| O=C1/C(=C/c2ccccc2)C(c2ccccc2)Oc2ccccc21 (centres unmarked) [Compound 5] | ~35% | 25–30% |  | Statistically significant increases in the IC50 value |

Reference: paper PMC11641365, “Evaluation of In Vitro Biological Activity of Flavanone/Chromanone Derivatives: Molecular Analysis of Anticancer Mechanisms in Colorectal Cancer” (International Journal of Molecular Sciences, 2024)
